Source: patent US12440466B2, “Fatty acid derivatives for treating non-alcoholic steatohepatitis” (BASF AS, priority 2017, dated 2025)
Marks after values point to notes of the source that are not given here.

Tests used:
CDAA/high-fat fed mice [1] = experiment: Hepatic lipidomic analysis, CDAA/high-fat diet mouse model; format: in vivo; conditions: Compound A 112 mg/kg bw per day or equimolar EPA, orally
Description: (§1) In Biological Examples 1-7, studies were performed in male C56BL/6J mice (9 weeks old). Mice were fed either choline-sufficient (CS) or choline deficient high-fat diets (31% total calories; “CDAA/high-fat”). The NASH inducing diet was instigated 6 weeks prior to the commencement of treatment in order to design the study as a treatment/reversal set-up rather than prophylaxis.
In Biological Example 7, after 6 weeks of either the CS or CDAA/high-fat diet, mice were administered 112 mg/kg bw per day of Compound A, or an equimolar dose of eicosapentaenoic acid (EPA), delivered orally. Hepatic lipidomic analysis was performed in isolated liver samples from CS (n=9), Compound A (n=9) and EPA (n=8) groups.
To further understand the effects of Compound A on hepatic lipid metabolism, lipidomic analysis of CS- and CDAA/high-fat fed mice (“CD”) was performed in isolated liver tissue.

[2] = system: LX-2 human hepatic stellate cells; experiment: LX-2 cell viability by MTS assay; format: cell-based; conditions: LX-2 cells; 24 hours; Compound A 10-75 μM, OA 75 μM
Description: (§2) Stellate cells are resident liver cells and the major cell type involved in the initiation and progression of liver fibrosis. In Biological Example 20, in vitro studies were performed on cultured human stellate cells (LX-2 cells) to assess direct effects of Compound A on these cells. Cells were treated for 24 hours with Compound A (10 μM, 25 μM, 50 μM, or 75 μM) or oleic acid (OA; 75 μM) and bromodeoxyuridine (BrdU) incorporation was assessed to determine effects on proliferation. A MTS (3-(4,5-dimethylthiazol-2-yl)-5-(3-carboxymethoxyphenyl)-2-(4-sulfophenyl)-2H-tetrazolium) assay was used to determine cell viability.
(§3) Cell proliferation of LX-2 human hepatic stellate cells treated for 24 hours with 10-75 μM of Compound A or oleic acid (OA) (75 μM) was assessed by BrdU incorporation. The results are normalised mean values ±S.E.M. of 5 independent experiments for icosabutate and 2 independent experiments for OA. […] The reduction in proliferation by Compound A was 25-34% at 24 hours whereas OA had no effect. The comparisons were made by one-way ANOVA with Dunnett's correction for multiple comparisons.

[3] = system: LX-2 human hepatic stellate cells; experiment: LX-2 stellate cell proliferation by BrdU incorporation; format: cell-based; conditions: LX-2 cells; 24 hours; OA 75 μM
Description: as §2, §3

STAM (model) mice [4] = experiment: Fibrosis area by Sirius Red staining, STAM model; format: in vivo, mouse; conditions: Sirius Red positive area, 6 weeks treatment, Compound A 37 mg/kg/day oral gavage
From the text: (§4) In Biological Example 8, pathogen-free 15-day-pregnant C57BL/6 mice were obtained from Charles River Laboratories in Japan Inc. (Kanagawa, Japan). NASH was established in male mice by a single subcutaneous injection of streptozotocin (STZ) (Sigma, USA) after birth and feeding with a high fat diet (HFD; CLEA) Japan, Japan) ad libitum after 4 weeks of age (day 28±2). Mice were randomised into 3 groups of 8 mice at 6 weeks of age the day before the start of treatment: vehicle (saline), Compound A and telmisartan (positive control). Treatment with Compound A at a dose of 37 mg/kg bw per day via oral gavage in conjunction with a high-fat diet was given for 6 weeks before sacrifice. NAFLD activity score (NAS) was calculated according to standardised criteria and fibrosis area was assessed via Sirius Red staining.

STAM (model) mice [5] = experiment: NAFLD activity score (NAS) in streptozotocin/high-fat diet NASH model (STAM model); format: in vivo, mouse; conditions: 6 weeks treatment, Compound A 37 mg/kg/day oral gavage, telmisartan positive control
From the text: as §4

[6] = Body weight, liver weight and food intake in ob/ob AMLN mice; format: in vivo, mouse
Description: (§5) Obese diet-induced B6.V-Lepob/Jrj mice (ob/ob) are consistently fibrosis (liver) prone when cholesterol (2%), 40% fat (containing 18% trans-fatty acids) and 20% fructose are added to a high-caloric diet (i.e., AMLN high-fat diet). ob/ob mice on AMLN diet (termed ‘ob/ob AMLN mice’) develop steatohepatitis and fibrosis within a shorter timeframe ([…]) compared with wild-type C57BL/6 mice (AMLN mice) fed the same diet. ob/ob AMLN mice provide an obese diet-induced model of NASH that also allows the study of effects on glycemic control. Development of NASH in the ob/ob AMLN model is confirmed by biopsy.
In Biological Examples 10-12, 15, and 19, studies were performed in male ob/ob mice (5 weeks old) fed an AMLN high-fat diet for 15 weeks, then randomized into 3 groups (n=10 per group) to receive either 112 mg/kg bw per day of Compound A via diet, 30 mg/kg bw per day pioglitazone via diet or no treatment (vehicle) for a further 4 weeks. An oral glucose tolerance test (OGTT) was performed at week 3. Hepatic fibrosis was assessed via measurements of hepatic fibrogenic/fibrolytic gene expression by RNA sequencing at 4 weeks.
(§6) In Biological Examples 10, 13-14, and 16-18, studies were performed in male ob/ob mice (5 weeks old) fed an AMLN high-fat diet for 18 weeks, then randomized into 6 groups (n=10 per group) to receive either Compound A (at 3 different daily doses, 45 mg/kg, 90 mg/kg or 135 mg/kg) via diet, 30 mg/kg bw per day obeticholic acid (OCA) via diet, or no treatment (vehicle) for a further 8 weeks. Assessment of NASH related parameters and fibrosis was made at study end by quantitative immune histochemistry (IHC) measurements.

Col1a1 mRNA = experiment: Hepatic Col1a1 mRNA expression by qPCR, CDAA/high-fat diet mouse model; format: in vivo; conditions: CDAA/high-fat fed mice
From the text: (§7) Mice were fed either choline-sufficient (CS) or choline deficient high-fat diets (31% total calories; “CDAA/high-fat”). The NASH inducing diet was instigated 6 weeks prior to the commencement of treatment in order to design the study as a treatment/reversal set-up rather than prophylaxis.
(§8) After 6 weeks of either the CS- or CDAA diet, mice were orally administered Compound A or comparison Compound N, both at 2 doses, 0.15 mmol/kg bw/day (low-dose, LD) and 0.3 mmol/kg bw per day (high-dose, HD). The test substances were administered orally as admix to the high-fat diet. Hepatic fibrosis was assessed by both measurement of hydroxyproline (HYP) content and Sirius Red (SR) morphometry. Fibrosis, inflammation and metabolism related transcripts levels were measured by quantitative real-time polymerase chain reaction (qPCR).
(§9) Studies were performed in male C56BL/6J mice (9 weeks old). Mice were divided into 6 experimental groups (n=9 per group) containing either CS or CDAA/high-fat diets, as described above. The NASH inducing CDAA/high fat diet was instigated 6 weeks prior to the commencement of treatment in order to assess treatment/reversal rather than prophylaxis. […] Compound A was administered orally as admix to the high-fat diet whilst GLP-1 agonist was delivered via intraperitoneal injection (i.p.). Fibrosis, inflammation and metabolism related transcripts levels were measured by quantitative real-time polymerase chain reaction (qPCR) in isolated liver tissue.

TNF-α mRNA = experiment: Hepatic TNF-α mRNA expression by qPCR, CDAA/high-fat diet mouse model; format: in vivo; conditions: CDAA/high-fat fed mice
From the text: as §7, §8, §9

CDAA/high-fat fed mice [7] = experiment: Hepatic hydroxyproline (HYP) content, CDAA/high-fat diet induced NASH mouse model; format: in vivo
From the text: Mouse models that are deficient in methionine and/choline (MCD and CDAA respectively) are well established for studying the development and treatment of NASH in pre-clinical drug development. As precursors for the synthesis of phosphatidylcholine, a dietary deficiency of methionine/choline leads to an inability to synthesize hepatic lipoproteins for the export of triglyceride that results in severe hepatic steatosis, inflammation and fibrosis.
Although the widely used methionine-choline deficient (MCD) diet consistently reproduces severe NASH-like hepatic inflammation and fibrosis in mice, it is also associated with severe weight-loss (loss of both skeletal muscle and fat mass). This is associated with an increased risk of death which presents major problems for long-term fibrogenesis experiments.
as §1
as §8, with “In Biological Examples 1-5, mice were divided into 6 experimental groups (n=9 per group) and fed either CS or CDAA/high-fat diets. After” for “After”

APOE*3Leiden.CETP mice [8] = conditions: WO2016173923A1, cited from earlier work
APOE*3Leiden.CETP mice [9] = experiment: Hepatocellular hypertrophy grading in APOE*3Leiden.CETP double transgenic mice; format: in vivo, mouse; conditions: APOE*3Leiden.CETP mice on high fat/cholesterol diet; 0.3 mmol/kg bw per day by gavage; 20 weeks
From the text: The APOE*3Leiden.CETP double transgenic mouse expresses a variant of the human apolipoprotein E3 (APOE3), the APOE*3Leiden, in addition to the human apolipoprotein C1 (APOC1) and CETP. […] By increasing the cholesterol content of the diet in this model, all the characteristics of human NASH develop.
In one study (using 1% cholesterol w/w), after a 3 weeks run-in period low-responder mice (20% of total) were removed from the study and the remaining mice were sub-divided into 4 groups of 12 mice each (+5 in the control group), matched for plasma cholesterol, triglycerides, blood glucose, body weight and age (t=0) and treatment was started. The mice received a daily gavage between 07hr00 and 10hr00 with either Compound A at 0.3 mmol/kg bw per day, the comparison compound Compound N (0.3 mmol/kg bw per day), rosiglitazone (13 mg/kg bw per day) or control (corn oil). After 20 weeks of treatment mice were sacrificed by CO2 asphyxiation, the liver was collected and the level of hepatocellular hypertrophy was graded.

col1A1 = experiment: Hepatic col1A1 content by quantitative IHC in ob/ob AMLN mice; format: in vivo, mouse; conditions: 8 weeks, OCA 30 mg/kg
Description: as §5, §6

[10] = system: α-smooth muscle actin (SMA); experiment: Hepatic α-SMA content by quantitative IHC in ob/ob AMLN mice; format: in vivo, mouse; conditions: 8 weeks, OCA 30 mg/kg
Description: as §5, §6

ob/ob AMLN mice = experiment: Plasma ALT and AST (hepatocellular damage) in ob/ob AMLN mice; format: in vivo, mouse; conditions: 8 weeks, OCA 30 mg/kg
Description: as §5, §6
To assess the effects of Compound A and pioglitazone on hepatocellular injury or damage in ob/ob AMLN mice, plasma alanine aminotransferase (ALT) and aspartate transaminase (AST) were measured after 8 weeks of administration.

[11] = 8 weeks, Compound A 45, 90 and 135 mg/kg, OCA 30 mg/kg bw per day

## CC/C=C\C/C=C\C/C=C\C/C=C\C/C=C\CCCC(=O)O [EPA, (5Z,8Z,11Z,14Z,17Z)-icosa-5,8,11,14,17-pentaenoic acid, reference compound]
CDAA/high-fat fed mice [1]
  hepatic cholesteryl ester: did not reduce
  hepatic diglycerides (DG): did not reduce
  hepatic free fatty acids (FFA): did not reduce
  hepatic triglyceride (TG): did not reduce

## CCCCCCCC/C=C\CCCCCCCC(=O)O [OA, oleic acid, reference compound]
[2]
  cell viability (MTS assay): neither Compound A nor OA showed a significant effect
[3]
  proliferation (BrdU incorporation): no effect

## CCCc1nc2c(C)cc(-c3nc4ccccc4n3C)cc2n1Cc1ccc(-c2ccccc2C(=O)O)cc1 [Telmisartan, reference compound]
STAM (model) mice [4]
  Fibrosis area (%): 0.44%
STAM (model) mice [5]
  Hepatocellular ballooning: 0.8
  Lobular inflammation: 0.45
  NAS score (mean ± SD): 1.8 ± 0.8
  Steatosis: 0.7

## CCc1ccc(CCOc2ccc(CC3SC(=O)NC3=O)cc2)nc1 (stereo not drawn) [pioglitazone, reference compound]
[6]; 4 weeks, pioglitazone 30 mg/kg bw per day, p<0.01
  increase in bodyweight: 15%

## CC/C=C\C/C=C\C/C=C\C/C=C\C/C=C\CCCCSC(CC)(CC)C(=O)O [Compound N, 2-ethyl-2-((5Z,8Z,11Z,14Z,17Z)-icosa-5,8,11,14,17-pentaenylthio)butanoic acid, reference compound]
Col1a1 mRNA; HD 0.3 mmol/kg bw per day
  Col1a1 (relative mRNA expression): 16
Col1a1 mRNA; LD 0.15 mmol/kg bw/day
  Col1a1 (relative mRNA expression): 15
TNF-α mRNA; HD 0.3 mmol/kg bw per day
  TNF-a (relative mRNA expression): 1.2
TNF-α mRNA; LD 0.15 mmol/kg bw/day
  TNF-a (relative mRNA expression): 1***
CDAA/high-fat fed mice [7]; HD 0.3 mmol/kg bw per day orally as admix to diet
  Hydroxyproline (μg) content per 100 mg liver: 54 μg HYP/per 100 mg liver
CDAA/high-fat fed mice [7]; LD 0.15 mmol/kg bw/day orally as admix to diet
  Hydroxyproline (μg) content per 100 mg liver: 48 μg HYP/per 100 mg liver
CDAA/high-fat fed mice [7]; high dose (HD) 0.3 mmol/kg bw per day orally as admix to diet
  Hydroxyproline (μg) content per liver: 950 µg
CDAA/high-fat fed mice [7]; low dose (LD) 0.15 mmol/kg bw/day orally as admix to diet
  Hydroxyproline (μg) content per liver: 1100 µg
APOE*3Leiden.CETP mice [8]; APOE*3Leiden.CETP mice
  fibrosis (hydroxyproline/proline ratio): had efficacy in reducing fibrosis
APOE*3Leiden.CETP mice [8]
  influx of inflammatory cells into the liver: prevented the influx of inflammatory cells into the liver
APOE*3Leiden.CETP mice [9]
  Decrease in hypertrophy vs. control (%): 7%
  Hepatocellular hypertrophy: 42.9 ± 29.7

## CC[C@H]1[C@@H](O)[C@@H]2[C@H](CC[C@]3(C)[C@@H]([C@H](C)CCC(=O)O)CC[C@@H]23)[C@@]2(C)CC[C@@H](O)C[C@@H]12 [OCA, reference compound]
col1A1
  total col1A1 content: no significant effect
[10]
  area percentage of α-SMA content compared to pre-treatment biopsy: no significant effect
[6]; [11]
  body weight: neither Compound A (45 mg/kg, 90 mg/kg, and 135 mg/kg) nor OCA significantly affected body weight
  food intake: not affected
ob/ob AMLN mice
  plasma ALT: no effect
  plasma AST: no effect
